Tests used:
[1] = Dissolution of SN-38 in aqueous SBECD at 100° C. (HPLC); type: physicochemical; settings: boiling water bath 1 hour, 24 hours room temperature
Method: 37.6 mL water was added to 62.4 g sodium sulfobutyl ether beta-cyclodextrin (having a substitution level of about 7, as determined by NMR, and a water content of 3.9%, as determined by Karl-Fisher method), and was mixed until homogenous. The resulting viscous liquid was filtered through a 0.2 micrometer nylon filter to produce 60% (w/w) clear aqueous solution of SBECD. The density of this solution was 1.29 g/mL.
2 mg of SN-38 was added to 4g of such 60% (w/w) aqueous SBECD, and the mixture heated in a boiling water bath for 1 hour, allowed to cool and kept at room temperature for 24 hours, and then filtered through a 0.2 micrometer nylon filter with a 1 micrometer glass fiber prefilter. A clear yellow viscous liquid was produced.
Aliquots of the resultant SN-38 composition in aqueous SBECD were diluted 6 times with water, and further diluted with 10% (w/w) aqueous SBECD to obtain samples having a concentration suitable for HPLC analysis. The samples were analyzed by HPLC using column Symmetry Shield C18 3.5 μ, 50×4.6 mm (Waters), water (0.1% TFA)—acetonitrile (0.1% TFA) gradient and UV detection at 225 nm and 260 nm. The concentrations of SN-38 in the samples were determined by comparison of the area under the peak with the results obtained from analysis of standard solutions.
4 g samples of aqueous SBECD having a concentration of 20%, 30%, 40%, 50% and 60% (w/w), respectively, were mixed with 2 mg of SN-38. The mixtures were heated in boiling water bath for 1 hour and then were kept for 24 hours at room temperature. The mixtures were then filtered through a 0.2 micrometer nylon filter and analyzed by HPLC as described in Example 1.

topoisomerase I enzyme = biological target: T1, topoisomerase I enzyme (Homo sapiens, UniProt P11387); settings: estimated; times more active than irinotecan; cited from earlier work
T1 sequence (P11387 1-765): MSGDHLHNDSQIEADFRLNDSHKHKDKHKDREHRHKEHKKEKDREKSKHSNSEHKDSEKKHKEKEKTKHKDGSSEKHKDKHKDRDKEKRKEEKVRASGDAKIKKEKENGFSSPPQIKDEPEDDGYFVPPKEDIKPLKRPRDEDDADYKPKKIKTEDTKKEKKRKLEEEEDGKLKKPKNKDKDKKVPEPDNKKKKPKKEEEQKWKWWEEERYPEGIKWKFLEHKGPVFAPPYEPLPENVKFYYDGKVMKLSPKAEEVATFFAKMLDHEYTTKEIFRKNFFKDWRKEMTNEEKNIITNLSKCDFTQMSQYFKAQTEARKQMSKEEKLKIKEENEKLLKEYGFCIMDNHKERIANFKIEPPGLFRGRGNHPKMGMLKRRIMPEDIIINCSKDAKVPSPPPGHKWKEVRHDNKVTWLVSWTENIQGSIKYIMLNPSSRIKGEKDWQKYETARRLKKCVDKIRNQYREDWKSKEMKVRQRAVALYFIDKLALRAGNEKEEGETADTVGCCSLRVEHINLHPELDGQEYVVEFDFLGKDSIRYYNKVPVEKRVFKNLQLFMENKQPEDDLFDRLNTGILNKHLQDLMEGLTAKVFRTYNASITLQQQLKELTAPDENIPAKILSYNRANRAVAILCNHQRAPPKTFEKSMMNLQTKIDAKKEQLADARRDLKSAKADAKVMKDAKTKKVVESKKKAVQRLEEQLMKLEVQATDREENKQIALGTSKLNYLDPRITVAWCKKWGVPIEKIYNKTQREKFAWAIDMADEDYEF

SN-38 concentration ([1]; 20% SBECD): 0.03 mg/g of solution
SN-38 concentration ([1]; 30% SBECD): 0.07 mg/g of solution
SN-38 concentration ([1]; 40% SBECD): 0.13 mg/g of solution
SN-38 concentration ([1]; 50% SBECD): 0.23 mg/g of solution
SN-38 concentration ([1]; 60% SBECD): 0.40 mg/g of solution
concentration of SN-38 in the product solution ([1]; Example 1: 60% (w/w) aqueous SBECD, filtered): 0.40 mg/g of composition
SMILES: CCc1c2c(nc3ccc(O)cc13)-c1cc3c(c(=O)n1C2)COC(=O)[C@]3(O)CC [SN-38, (4S)-4,11-Diethyl-4,9-dihydroxy-1H-pyrano[3′,4′:6,7]indolizino[1,2-b]quinoline-3,14(4H,12H)dione]
activity relative to irinotecan (topoisomerase I enzyme): up to 1000 times
